{"source": "paper PMC4696493", "about": "(RSC advances, 2014)", "key": {"G-actin": {"target": "G-actin (Oryctolagus cuniculus, UniProt P68135)", "assay": "Surface plasmon resonance, actin binding", "design": "species or system rabbit"}}, "note": "Where two headings read alike, the source gives them in different places. No end group written: not given here.", "data": [{"compound": "CC[C@H](C)[C@H](NC(=O)[C@H](CCCCN)NC(=O)[C@H](CCC(=O)O)NC(=O)[C@H](CCCCN)NC(=O)[C@H](CO)NC(=O)[C@H](CCCCN)NC(=O)[C@H](CCCNC(=N)N)NC(=O)[C@H](Cc1ccccc1)NC(=O)[C@H](Cc1ccccc1)NC(=O)[C@H](CC(=O)O)NC(=O)CNC(=O)[C@H](CC(C)C)NC(=O)[C@@H](N)CC(C)C)C(=O)NCC(=O)N[C@@H](CCCCN)C(=O)N[C@@H](CCC(=O)O)C(=O)N[C@@H](Cc1ccccc1)C(=O)N[C@@H](CCCCN)C(=O)N[C@@H](CCCNC(=N)N)C(=O)N[C@H](C(=O)N[C@H](C(=O)N[C@@H](CCC(N)=O)C(=O)N[C@@H](CCCNC(=N)N)C(=O)N[C@H](C(=O)N[C@@H](CCCCN)C(=O)N[C@@H](CC(=O)O)C(=O)N[C@@H](Cc1ccccc1)C(=O)N[C@@H](CC(C)C)C(=O)N[C@@H](CCCNC(=N)N)C(=O)N[C@@H](CC(N)=O)C(=O)N[C@@H](CC(C)C)C(=O)N[C@H](C(=O)N1CCC[C@H]1C(=O)N[C@@H](CCCNC(=N)N)C(=O)N[C@H](C(=O)N[C@@H](CCC(=O)O)C(=O)N[C@@H](CO)C(=O)O)[C@@H](C)O)C(C)C)[C@@H](C)CC)C(C)C)[C@@H](C)CC", "note": "[LL-37, reference compound]", "values": [{"measurement": "MIC", "setting": "Bacillus subtilis PY79; measured with B. subtilis PY79, LB, 37 °C", "result": 1.1, "unit": "µM"}, {"measurement": "MIC", "setting": "E. coli K12; E. coli K12, 100 mM NaCl, tryptic soy broth (TSB)", "result": 10, "unit": "µM"}, {"measurement": "MIC", "setting": "E. coli K12; E. coli K12, no salt, tryptic soy broth (TSB)", "result": 10, "unit": "µM"}]}, {"compound": "FKRIVQRIKDFLR-NH2 [FK-13]", "values": [{"measurement": "Kd", "setting": "G-actin", "result": 18.6, "unit": "µM"}, {"measurement": "MIC", "setting": "Bacillus subtilis PY79; PY79", "result": 3.3, "unit": "µM"}]}, {"compound": "KRIVQRIKDF-NH2 [KR-10]", "values": [{"measurement": "Kd", "setting": "G-actin", "result": 28.4, "unit": "µM"}, {"measurement": "MIC", "setting": "E. coli K12; K12", "result": ">160", "unit": "µM"}]}, {"compound": "KRIVQRIKDFLR-NH2 [KR-12]", "values": [{"measurement": "Kd", "setting": "G-actin", "result": 11.8, "unit": "µM"}, {"measurement": "MIC", "setting": "Bacillus subtilis PY79; PY79", "result": 6.6, "unit": "µM"}]}]}
